Assay results from article PMC6321601 (Molecules, 2018).

What was measured:
[1] = test system: L-O2 human normal liver cells; assay: MTT assay, toxicity against L-O2 normal cells; format: cell-based; conditions: Homo sapiens, 72 h incubation, mean of three independent experiments
Experimental: (§1) HepG-2 human hepatocellular carcinoma cells and L-O2 human normal liver cells were maintained in DMEM culture medium supplemented with 10% FBS at 37 °C under a humidified atmosphere with 5% CO2.
(§2) HepG-2 and L-O2 cells in logarithmic growth phase were seeded into a 96-well plate at 5 × 10^3/well/200 µL. After 12 h, compounds at different concentrations were added and incubated for 72 h at 37 °C, 5% CO2. Then, 20 µL MTT (5 mg/mL) was added into each well and incubated for 4 h. The supernatant was discarded, and the precipitate was dissolved with DMSO. The absorbance of the optical density (OD) at 570 nm was detected using a microplate reader and the IC50 was calculated with GraphPad Prism 5.

[2] = test system: HepG-2 human hepatocellular carcinoma cells; assay: MTT assay, proliferation of HepG-2 cells; format: cell-based; conditions: Homo sapiens, HepG2, 72 h incubation, mean of three independent experiments
Experimental: as §1, §2

| SMILES | IC50 [1] | IC50 [2] |
| --- | --- | --- |
| CC(=O)OC(C)(C)/C=C/C(=O)[C@](C)(O)C1[C@H](OC(=O)/C=C/c2ccc(C#N)cc2)C[C@@]2(C)C3CC=C4C(C[C@H](O)C(=O)C4(C)C)[C@]3(C)C(=O)C[C@]12C (stereo partly drawn) [Compound 3p, (2S,9R,13R,14S,16R)-17-((R,E)-6-Acetoxy-2-hydroxy-6-methyl-3-oxohept-4-en-2-yl)-2-hydroxy-4,4,9,13,14-pentamethyl-3,11-dioxo-2,3,4,7,8,9,10,11,12,13,14,15,16,17-tetradecahydro-1H-cyclopenta[a]phenanthren-16-yl (E)-3-(4-cyanophenyl)acrylate] | 1470 ± 360 nM | 2340 ± 910 nM |
| COc1cc(/C=C/C(=O)O[C@@H]2C[C@@]3(C)C4CC=C5C(C[C@H](O)C(=O)C5(C)C)[C@]4(C)C(=O)C[C@]3(C)C2[C@@](C)(O)C(=O)/C=C/C(C)(C)OC(C)=O)cc(OC)c1 (stereo partly drawn) [Compound 3q, (2S,9R,13R,14S,16R)-17-((R,E)-6-Acetoxy-2-hydroxy-6-methyl-3-oxohept-4-en-2-yl)-2-hydroxy-4,4,9,13,14-pentamethyl-3,11-dioxo-2,3,4,7,8,9,10,11,12,13,14,15,16,17-tetradecahydro-1H-cyclopenta[a]phenanthren-16-yl (E)-3-(3,5-dimethoxyphenyl)acrylate] | 5250 ± 1630 nM | 3850 ± 630 nM |
| CC(=O)OC(C)(C)/C=C/C(=O)[C@](C)(O)C1[C@H](OC(=O)/C=C/c2ccccc2)C[C@@]2(C)C3CC=C4C(C[C@H](OC(=O)/C=C/c5ccccc5)C(=O)C4(C)C)[C@]3(C)C(=O)C[C@]12C (stereo partly drawn) [Compound 4, (2S,9R,13R,14S,16R)-17-((R,E)-6-Acetoxy-2-hydroxy-6-methyl-3-oxohept-4-en-2-yl)-4,4,9,13,14-pentamethyl-3,11-dioxo-2,3,4,7,8,9,10,11,12,13,14,15,16,17-tetradecahydro-1H-cyclopenta[a]phenanthrene-2,16-diyl (2E,2′E)-bis(3-phenylacrylate)] | > 20000 nM | > 20000 nM |
| CC(=O)OC(C)(C)C=CC(=O)C(C)(O)C1C(OC(=O)CCC(=O)NCCOc2no[n+]([O-])c2S(=O)(=O)c2ccccc2)CC2(C)C3CC=C4C(CC(O)C(=O)C4(C)C)C3(C)C(=O)CC12C [Compound 9a, 3-((l1-oxidanyl)(oxo)(phenyl)-l5-sulfanyl)-4-(2-(4-(((9R,13R,14S,16R)-17-((R,E)-6-acetoxy-2-hydroxy-6-methyl-3-oxohept-4-en-2-yl)-2-Hydroxy-4,4,9,13,14-pentamethyl-3,11-dioxo-2,3,4,7,8,9,10,11,12,13,14,15,16,17-tetradecahydro-1H-cyclopenta[a]phenanthren-16-yl)oxy)-4-oxobutanamido)ethoxy)-1,2,5-oxadiazole 2-oxide] | 690 ± 430 nM | 460 ± 140 nM |
| CC(=O)OC(C)(C)/C=C/C(=O)[C@](C)(O)C1[C@H](OC(=O)CCC(=O)NCCCOc2no[n+]([O-])c2S(=O)(=O)c2ccccc2)C[C@@]2(C)C3CC=C4C(CC(O)C(=O)C4(C)C)[C@]3(C)C(=O)C[C@]12C (stereo partly drawn) [Compound 9b, 4-(3-(4-(((9R,13R,14S,16R)-17-((R,E)-6-Acetoxy-2-hydroxy-6-methyl-3-oxohept-4-en-2-yl)-2-hydroxy-4,4,9,13,14-pentamethyl-3,11-dioxo-2,3,4,7,8,9,10,11,12,13,14,15,16,17-tetradecahydro-1H-cyclopenta[a]phenanthren-16-yl)oxy)-4-oxobutanamido)propoxy)-3-(phenylsulfonyl)-1,2,5-oxadiazole 2-oxide] | 800 ± 400 nM | 530 ± 10 nM |
| CC(=O)OC(C)(C)/C=C/C(=O)[C@](C)(O)C1[C@H](OC(=O)CCC(=O)N2CCN(CCOc3no[n+]([O-])c3S(=O)(=O)c3ccccc3)CC2)C[C@@]2(C)C3CC=C4C(CC(O)C(=O)C4(C)C)[C@]3(C)C(=O)C[C@]12C (stereo partly drawn) [Compound 9c, 4-(2-(4-(4-(((9R,13R,14S,16R)-17-((R,E)-6-Acetoxy-2-hydroxy-6-methyl-3-oxohept-4-en-2-yl)-2-hydroxy-4,4,9,13,14-pentamethyl-3,11-dioxo-2,3,4,7,8,9,10,11,12,13,14,15,16,17-tetradecahydro-1H-cyclopenta[a]phenanthren-16-yl)oxy)-4-oxobutanoyl)piperazin-1-yl)ethoxy)-3-(phenylsulfonyl)-1,2,5-oxadiazole 2-oxide] | 2610 ± 1770 nM | 920 ± 160 nM |
| CC(=O)OC(C)(C)/C=C/C(=O)[C@](C)(O)C1[C@H](OC(=O)CCC(=O)OCCOc2no[n+]([O-])c2S(=O)(=O)c2ccccc2)C[C@@]2(C)C3CC=C4C(CC(O)C(=O)C4(C)C)[C@]3(C)C(=O)C[C@]12C (stereo partly drawn) [Compound 10a, 4-(2-((4-(((9R,13R,14S,16R)-17-((R,E)-6-Acetoxy-2-hydroxy-6-methyl-3-oxohept-4-en-2-yl)-2-hydroxy-4,4,9,13,14-pentamethyl-3,11-dioxo-2,3,4,7,8,9,10,11,12,13,14,15,16,17-tetradecahydro-1H-cyclopenta[a]phenanthren-16-yl)oxy)-4-oxobutanoyl)oxy)ethoxy)-3-(phenylsulfonyl)-1,2,5-oxadiazole 2-oxide] | 2040 ± 670 nM | 820 ± 330 nM |
| CC(=O)OC(C)(C)/C=C/C(=O)[C@](C)(O)C1[C@H](OC(=O)CCC(=O)OCCCCOc2no[n+]([O-])c2S(=O)(=O)c2ccccc2)C[C@@]2(C)C3CC=C4C(CC(O)C(=O)C4(C)C)[C@]3(C)C(=O)C[C@]12C (stereo partly drawn) [Compound 10c, 4-(4-((4-(((9R,13R,14S,16R)-17-((R,E)-6-Acetoxy-2-hydroxy-6-methyl-3-oxohept-4-en-2-yl)-2-hydroxy-4,4,9,13,14-pentamethyl-3,11-dioxo-2,3,4,7,8,9,10,11,12,13,14,15,16,17-tetradecahydro-1H-cyclopenta[a]phenanthren-16-yl)oxy)-4-oxobutanoyl)oxy)butoxy)-3-(phenylsulfonyl)-1,2,5-oxadiazole 2-oxide] | 2100 ± 1410 nM | 520 ± 90 nM |
| CC(=O)OC(C)(C)/C=C/C(=O)[C@](C)(O)C1[C@H](OC(=O)CCC(=O)OCCCCCOc2no[n+]([O-])c2S(=O)(=O)c2ccccc2)C[C@@]2(C)C3CC=C4C(CC(O)C(=O)C4(C)C)[C@]3(C)C(=O)C[C@]12C (stereo partly drawn) [Compound 10d, 4-((5-((4-(((9R,13R,14S,16R)-17-((R,E)-6-Acetoxy-2-hydroxy-6-methyl-3-oxohept-4-en-2-yl)-2-hydroxy-4,4,9,13,14-pentamethyl-3,11-dioxo-2,3,4,7,8,9,10,11,12,13,14,15,16,17-tetradecahydro-1H-cyclopenta[a]phenanthren-16-yl)oxy)-4-oxobutanoyl)oxy)pentyl)oxy)-3-(phenylsulfonyl)-1,2,5-oxadiazole 2-oxide] | 2620 ± 520 nM | 640 ± 260 nM |
| CC(=O)OC(C)(C)/C=C/C(=O)[C@](C)(O)C1[C@H](OC(=O)CCC(=O)OCCCCCCOc2no[n+]([O-])c2S(=O)(=O)c2ccccc2)C[C@@]2(C)C3CC=C4C(CC(O)C(=O)C4(C)C)[C@]3(C)C(=O)C[C@]12C (stereo partly drawn) [Compound 10e, 4-((6-((4-(((9R,13R,14S,16R)-17-((R,E)-6-Acetoxy-2-hydroxy-6-methyl-3-oxohept-4-en-2-yl)-2-hydroxy-4,4,9,13,14-pentamethyl-3,11-dioxo-2,3,4,7,8,9,10,11,12,13,14,15,16,17-tetradecahydro-1H-cyclopenta[a]phenanthren-16-yl)oxy)-4-oxobutanoyl)oxy)hexyl)oxy)-3-(phenylsulfonyl)-1,2,5-oxadiazole 2-oxide] | 3210 ± 90 nM | 1150 ± 240 nM |
| CC(=O)OC(C)(C)/C=C/C(=O)[C@](C)(O)C1[C@H](OC(=O)CCC(=O)OCCCCCCCOc2no[n+]([O-])c2S(=O)(=O)c2ccccc2)C[C@@]2(C)C3CC=C4C(CC(O)C(=O)C4(C)C)[C@]3(C)C(=O)C[C@]12C (stereo partly drawn) [Compound 10f, 4-((7-((4-(((9R,13R,14S,16R)-17-((R,E)-6-Acetoxy-2-hydroxy-6-methyl-3-oxohept-4-en-2-yl)-2-hydroxy-4,4,9,13,14-pentamethyl-3,11-dioxo-2,3,4,7,8,9,10,11,12,13,14,15,16,17-tetradecahydro-1H-cyclopenta[a]phenanthren-16-yl)oxy)-4-oxobutanoyl)oxy)heptyl)oxy)-3-(phenylsulfonyl)-1,2,5-oxadiazole 2-oxide] | 3250 ± 400 nM | 830 ± 380 nM |
| CC(=O)OC(C)(C)/C=C/C(=O)[C@](C)(O)C1[C@H](OC(=O)CCC(=O)OCCCCCCCCOc2no[n+]([O-])c2S(=O)(=O)c2ccccc2)C[C@@]2(C)C3CC=C4C(CC(O)C(=O)C4(C)C)[C@]3(C)C(=O)C[C@]12C (stereo partly drawn) [Compound 10g, 4-((8-((4-(((9R,13R,14S,16R)-17-((R,E)-6-Acetoxy-2-hydroxy-6-methyl-3-oxohept-4-en-2-yl)-2-hydroxy-4,4,9,13,14-pentamethyl-3,11-dioxo-2,3,4,7,8,9,10,11,12,13,14,15,16,17-tetradecahydro-1H-cyclopenta[a]phenanthren-16-yl)oxy)-4-oxobutanoyl)oxy)octyl)oxy)-3-(phenylsulfonyl)-1,2,5-oxadiazole 2-oxide] | 4290 ± 660 nM | 1190 ± 550 nM |
| CC(=O)OC(C)(C)/C=C/C(=O)[C@](C)(O)C1[C@H](OC(=O)CCC(=O)OCCCCCCCCCOc2no[n+]([O-])c2S(=O)(=O)c2ccccc2)C[C@@]2(C)C3CC=C4C(CC(O)C(=O)C4(C)C)[C@]3(C)C(=O)C[C@]12C (stereo partly drawn) [Compound 10h, 4-((9-((4-(((9R,13R,14S,16R)-17-((R,E)-6-Acetoxy-2-hydroxy-6-methyl-3-oxohept-4-en-2-yl)-2-hydroxy-4,4,9,13,14-pentamethyl-3,11-dioxo-2,3,4,7,8,9,10,11,12,13,14,15,16,17-tetradecahydro-1H-cyclopenta[a]phenanthren-16-yl)oxy)-4-oxobutanoyl)oxy)nonyl)oxy)-3-(phenylsulfonyl)-1,2,5-oxadiazole 2-oxide] | 1170 ± 80 nM | 1150 ± 240 nM |
